Measurements taken from patent US20100160445A1, “Synergistic Mixtures of OPP and DGH” (priority 2002, published 2010).
Where a name gives a salt, the structure may show the parent alone.

Tested on: mildew
Assay: Mildew resistance testing of caulking adhesives, ASTM D3273
Type: cell-based
Procedure: Testing was also completed on Franklin International Caulking Adhesives. The testing that was conducted was done in accordance with test ASTM D3273 as set forth in the Annual Book of ASTM Standards, Vol 06.01 which is hereby incorporated by reference. This is a standard test method for mildew known to those skilled in the art. When performing this test OPP was not tested by itself as it is known in the art of coatings that significant amounts of OPP are required, typically in the range of 2,000 to 10,000 ppm which is supported by EPA Registration No.'s 39967-11-67869 and EPA Registration No. 464-78-67869. An example of the significant amounts of OPP needed can also be seen in the OPP results in the paint testing shown above.
• 10=No Mildew Growth, Excellent Mildew Resistance • 7-9=Trace Mildew Growth, Very Good Mildew Resistance • 6-5=Moderate Mildew Growth, Poor Mildew Resistance • 4-0=Heavy Mildew Growth, Failed

[1] = Titebond Professional Drywall Adhesive, 500 ppm
[2] = Titebond Professional Drywall Adhesive, 1000 ppm
[3] = Titebond Professional Drywall Adhesive, 1500 ppm
[4] = Titebond Professional Drywall Adhesive, 2000 ppm
[5] = Titebond Professional Tub Surround Adhesive, 500 ppm
[6] = Titebond Professional Tub Surround Adhesive, 1000 ppm
[7] = Titebond Professional Tub Surround Adhesive, 1500 ppm
[8] = Titebond Professional Tub Surround Adhesive, 2000 ppm
[9] = Titebond Solvent Free Construction Adhesive, 500 ppm
[10] = Titebond Solvent Free Construction Adhesive, 1000 ppm
[11] = Titebond Solvent Free Construction Adhesive, 1500 ppm
[12] = Titebond Solvent Free Construction Adhesive, 2000 ppm
[13] = Titebond Solvent Free Fast Grab FRP Adhesive, 500 ppm
[14] = Titebond Solvent Free Fast Grab FRP Adhesive, 1000 ppm
[15] = Titebond Solvent Free Fast Grab FRP Adhesive, 1500 ppm
[16] = Titebond Solvent Free Fast Grab FRP Adhesive, 2000 ppm
[17] = Titebond Solvent Free Subfloor Adhesive, 500 ppm
[18] = Titebond Solvent Free Subfloor Adhesive, 1000 ppm
[19] = Titebond Solvent Free Subfloor Adhesive, 1500 ppm
[20] = Titebond Solvent Free Subfloor Adhesive, 2000 ppm

CCCCCCCCCCCCNC(=N)N [DGH, Dodecylguanidine Hydrochloride]
Mildew Results 7 Days [1]: 10 | Mildew Results 14 Days [1]: 10 | Mildew Results 21 Days [1]: 10 | Mildew Results 28 Days [1]: 10 | Mildew Results 7 Days [2]: 10 | Mildew Results 14 Days [2]: 10 | Mildew Results 21 Days [2]: 10 | Mildew Results 28 Days [2]: 10 | Mildew Results 7 Days [3]: 10 | Mildew Results 14 Days [3]: 10 | Mildew Results 21 Days [3]: 10 | Mildew Results 28 Days [3]: 10 | Mildew Results 7 Days [4]: 10 | Mildew Results 14 Days [4]: 10 | Mildew Results 21 Days [4]: 10 | Mildew Results 28 Days [4]: 10 | Mildew Results 7 Days [5]: 10 | Mildew Results 14 Days [5]: 10 | Mildew Results 21 Days [5]: 10 | Mildew Results 28 Days [5]: 10 | Mildew Results 7 Days [6]: 10 | Mildew Results 14 Days [6]: 10 | Mildew Results 21 Days [6]: 10 | Mildew Results 28 Days [6]: 10 | Mildew Results 7 Days [7]: 10 | Mildew Results 14 Days [7]: 10 | Mildew Results 21 Days [7]: 10 | Mildew Results 28 Days [7]: 10 | Mildew Results 7 Days [8]: 10 | Mildew Results 14 Days [8]: 10 | Mildew Results 21 Days [8]: 10 | Mildew Results 28 Days [8]: 10 | Mildew Results 7 Days [9]: 10 | Mildew Results 14 Days [9]: 10 | Mildew Results 21 Days [9]: 10 | Mildew Results 28 Days [9]: 10 | Mildew Results 7 Days [10]: 10 | Mildew Results 14 Days [10]: 10 | Mildew Results 21 Days [10]: 10 | Mildew Results 28 Days [10]: 10 | Mildew Results 7 Days [11]: 10 | Mildew Results 14 Days [11]: 10 | Mildew Results 21 Days [11]: 10 | Mildew Results 28 Days [11]: 10 | Mildew Results 7 Days [12]: 10 | Mildew Results 14 Days [12]: 10 | Mildew Results 21 Days [12]: 10 | Mildew Results 28 Days [12]: 10 | Mildew Results 7 Days [13]: 10 | Mildew Results 14 Days [13]: 10 | Mildew Results 21 Days [13]: 0 | Mildew Results 28 Days [13]: 0 | Mildew Results 7 Days [14]: 10 | Mildew Results 14 Days [14]: 10 | Mildew Results 21 Days [14]: 0 | Mildew Results 28 Days [14]: 0 | Mildew Results 7 Days [15]: 10 | Mildew Results 14 Days [15]: 10 | Mildew Results 21 Days [15]: 10 | Mildew Results 28 Days [15]: 9 | Mildew Results 7 Days [16]: 10 | Mildew Results 14 Days [16]: 10 | Mildew Results 21 Days [16]: 10 | Mildew Results 28 Days [16]: 10 | Mildew Results 7 Days [17]: 7 | Mildew Results 14 Days [17]: 7 | Mildew Results 21 Days [17]: 0 | Mildew Results 28 Days [17]: 0 | Mildew Results 7 Days [18]: 7 | Mildew Results 14 Days [18]: 7 | Mildew Results 21 Days [18]: 0 | Mildew Results 28 Days [18]: 0 | Mildew Results 7 Days [19]: 7 | Mildew Results 14 Days [19]: 7 | Mildew Results 21 Days [19]: 0 | Mildew Results 28 Days [19]: 0 | Mildew Results 7 Days [20]: 10 | Mildew Results 14 Days [20]: 10 | Mildew Results 21 Days [20]: 10 | Mildew Results 28 Days [20]: 10
